Reference: PubChem BioAssay AID328 (DTP/NCI, 2004)
Where “and” joins values, the source holds several entries; their conditions need not be identical. Equal values may be shown once. Toxic doses and inconclusive results are not listed.

Test system: BDF1 mice, P388 leukemia ip, median survival T/C
Assay: NCI In Vivo Anticancer Drug Screen. Data for tumor model P388 Leukemia (intraperitoneal) in B6D2F1 (BDF1) mice
Details: endpoint: median survival time, higher = longer survival
Outline: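 Survival ratio, drug arm over vehicle arm, in mice with a transplanted tumour.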

[1] = dose: 12.5 mg/kg/injection, schedule: Q01DX009 (ip), vehicle: Klucel (hydroxypropylcellulose) (HPC)
[2] = dose: 25.0 mg/kg/injection, schedule: Q01DX009 (ip), vehicle: Klucel (hydroxypropylcellulose) (HPC)
[3] = dose: 50.0 mg/kg/injection, schedule: Q01DX009 (ip), vehicle: Klucel (hydroxypropylcellulose) (HPC)
[4] = dose: 75.0 mg/kg/injection, schedule: Q01DX009 (ip), vehicle: Klucel (hydroxypropylcellulose) (HPC)
[5] = dose: 50.0 mg/kg/injection, schedule: Q01DX009 (ip), vehicle: saline with Tween-80
[6] = dose: 100.0 mg/kg/injection, schedule: Q01DX009 (ip), vehicle: saline with Tween-80
[7] = dose: 200.0 mg/kg/injection, schedule: Q01DX009 (ip), vehicle: saline with Tween-80
[8] = dose: 100.0 mg/kg/injection, schedule: Q01DX009 (ip), vehicle: Klucel (hydroxypropylcellulose) (HPC)
[9] = dose: 200.0 mg/kg/injection, schedule: Q01DX009 (ip), vehicle: Klucel (hydroxypropylcellulose) (HPC)
[10] = dose: 50.0 mg/kg/injection, schedule: Q01DX005 (ip), vehicle: saline
[11] = dose: 100.0 mg/kg/injection, schedule: Q01DX005 (ip), vehicle: saline
[12] = dose: 200.0 mg/kg/injection, schedule: Q01DX005 (ip), vehicle: saline
[13] = dose: 50.0 mg/kg/injection, schedule: Q01DX009 (ip), vehicle: saline
[14] = dose: 100.0 mg/kg/injection, schedule: Q01DX009 (ip), vehicle: saline
[15] = dose: 200.0 mg/kg/injection, schedule: Q01DX009 (ip), vehicle: saline
[16] = dose: 25.0 mg/kg/injection, schedule: Q01DX009 (ip), vehicle: saline with Tween-80
[17] = dose: 100.0 mg/kg/injection, schedule: Q04DX003 (ip), vehicle: saline with Tween-80
[18] = dose: 200.0 mg/kg/injection, schedule: Q04DX003 (ip), vehicle: saline with Tween-80
[19] = dose: 400.0 mg/kg/injection, schedule: Q04DX003 (ip), vehicle: saline with Tween-80

CC1(CCC(=O)/C=C/c2ccccc2)CCC/C(=C/c2ccccc2)C1=O (stereo unspecified)
T/C [1]: 110 % of control
T/C [2]: 115 % of control
T/C [3]: 110 % of control
T/C [4]: 100 % of control
T/C (dose: 115.0 mg/kg/injection, schedule: Q01DX009 (ip), vehicle: Klucel (hydroxypropylcellulose) (HPC)): 100 % of control
T/C (dose: 170.0 mg/kg/injection, schedule: Q01DX009 (ip), vehicle: Klucel (hydroxypropylcellulose) (HPC)): 95 % of control

O=C(c1ccccc1)C(SSC(C(=O)c1ccccc1)C(=O)c1ccccc1)C(=O)c1ccccc1
T/C [5]: 100 % of control
T/C [6]: 112 % of control
T/C [7]: 103 % of control

CC(=O)Nc1cc2c3c(c1)CCN3CCC2
T/C (dose: 3.13 mg/kg/injection, schedule: Q01DX001 (ip), vehicle: saline with Tween-80): 95 % of control
T/C (dose: 6.25 mg/kg/injection, schedule: Q01DX001 (ip), vehicle: saline with Tween-80): 95 % of control
T/C (dose: 12.5 mg/kg/injection, schedule: Q01DX001 (ip), vehicle: saline with Tween-80): 90 % of control

CC#CC(=O)SCCNC(=O)CC
T/C (dose: 12.5 mg/kg/injection, schedule: Q04DX003 (ip), vehicle: saline with Tween-80): 100 % of control
T/C (dose: 25.0 mg/kg/injection, schedule: Q04DX003 (ip), vehicle: saline with Tween-80): 104 % of control
T/C (dose: 50.0 mg/kg/injection, schedule: Q04DX003 (ip), vehicle: saline with Tween-80): 95 % of control and 100 % of control

BrCCN(CCBr)c1cccc(/C=C/c2ccccc2)c1
T/C [3]: 99 % of control
T/C [8]: 101 % of control
T/C [9]: 114 % of control

CCCCCCCCCCCCSCCCCSCCCCCCCCCCCC
T/C (dose: 100.0 mg/kg/injection, schedule: Q01DX001 (ip), vehicle: saline sonified): 100 % of control
T/C (dose: 200.0 mg/kg/injection, schedule: Q01DX001 (ip), vehicle: saline sonified): 86 % of control

CC(C)(C)P(O)(=S)c1ccccc1 (stereo unspecified) (tested in a mixture with another compound)
T/C [10]: 94 % of control
T/C [11]: 93 % of control
T/C [12]: 100 % of control

CS(=O)(=O)c1ncc(Br)cn1
T/C (dose: 50.0 mg/kg/injection, schedule: Q01DX005 (ip), vehicle: saline with Tween-80): 103 % of control
T/C [13]: 111 % of control
T/C (dose: 100.0 mg/kg/injection, schedule: Q01DX005 (ip), vehicle: saline with Tween-80): 109 % of control
T/C [14]: 124 % of control
T/C (dose: 200.0 mg/kg/injection, schedule: Q01DX005 (ip), vehicle: saline with Tween-80): 117 % of control
T/C [15]: 120 % of control
T/C (dose: 400.0 mg/kg/injection, schedule: Q01DX005 (ip), vehicle: saline with Tween-80): 120 % of control

NC(CSC(c1ccccc1)(c1ccccc1)c1ccc(F)cc1)C(=O)O (stereo unspecified)
T/C (dose: 2.9 mg/kg/injection, schedule: Q01DX009 (ip), vehicle: Klucel (hydroxypropylcellulose) (HPC)): 107 % of control
T/C (dose: 4.3 mg/kg/injection, schedule: Q01DX009 (ip), vehicle: Klucel (hydroxypropylcellulose) (HPC)): 123 % of control
T/C [1]: 170 % of control
T/C (dose: 23.0 mg/kg/injection, schedule: Q01DX009 (ip), vehicle: Klucel (hydroxypropylcellulose) (HPC)): 216 % of control
T/C [2]: 227 % of control
T/C (dose: 25.0 mg/kg/injection, schedule: Q04DX003 (ip), vehicle: Klucel (hydroxypropylcellulose) (HPC)): 170 % of control
T/C (dose: 35.0 mg/kg/injection, schedule: Q01DX009 (ip), vehicle: Klucel (hydroxypropylcellulose) (HPC)): 222 % of control
T/C [3]: 255 % of control and 104 % of control and 209 % of control
T/C (dose: 50.0 mg/kg/injection, schedule: Q04DX003 (ip), vehicle: Klucel (hydroxypropylcellulose) (HPC)): 180 % of control
T/C [4]: 90 % of control
T/C [8]: 194 % of control
T/C (dose: 100.0 mg/kg/injection, schedule: Q04DX003 (ip), vehicle: Klucel (hydroxypropylcellulose) (HPC)): 175 % of control and 185 % of control
T/C [9]: 100 % of control
T/C (dose: 200.0 mg/kg/injection, schedule: Q04DX003 (ip), vehicle: Klucel (hydroxypropylcellulose) (HPC)): 285 % of control and 205 % of control

Cc1nc(C(=O)O)c(=O)[nH]c1C
T/C (dose: 50.0 mg/kg/injection, schedule: Q01DX009 (ip), vehicle: water): 114 % of control
T/C (dose: 50.0 mg/kg/injection, schedule: Q04DX003 (ip), vehicle: water): 94 % of control
T/C (dose: 100.0 mg/kg/injection, schedule: Q01DX009 (ip), vehicle: water): 122 % of control
T/C (dose: 100.0 mg/kg/injection, schedule: Q04DX003 (ip), vehicle: water): 105 % of control
T/C (dose: 200.0 mg/kg/injection, schedule: Q01DX009 (ip), vehicle: water): 121 % of control
T/C (dose: 200.0 mg/kg/injection, schedule: Q04DX003 (ip), vehicle: water): 100 % of control

S=c1cc(-c2ccco2)ss1
T/C [16]: 112 % of control
T/C [5]: 95 % of control
T/C [6]: 98 % of control
T/C [17]: 110 % of control
T/C [7]: 102 % of control
T/C [18]: 100 % of control
T/C (dose: 400.0 mg/kg/injection, schedule: Q01DX009 (ip), vehicle: saline with Tween-80): 107 % of control
T/C [19]: 101 % of control

CCCCCCCCOc1cc(OC(C)=O)c2c(ccc3ccccc32)c1
T/C [17]: 88 % of control
T/C [18]: 87 % of control
T/C [19]: 88 % of control

C[N+]1=C2CCCC2=C(N)CC1
T/C (dose: 6.25 mg/kg/injection, schedule: Q01DX009 (ip), vehicle: saline): 110 % of control
T/C (dose: 12.5 mg/kg/injection, schedule: Q01DX009 (ip), vehicle: saline): 115 % of control
T/C (dose: 12.5 mg/kg/injection, schedule: Q04DX003 (ip), vehicle: saline): 95 % of control
T/C (dose: 25.0 mg/kg/injection, schedule: Q01DX009 (ip), vehicle: saline): 100 % of control
T/C (dose: 25.0 mg/kg/injection, schedule: Q04DX003 (ip), vehicle: saline): 100 % of control

CC(C)(C)/C([O-])=N/[N+](C)(C)C
T/C (dose: 50.0 mg/kg/injection, schedule: Q01DX001 (ip), vehicle: saline): 109 % of control
T/C (dose: 100.0 mg/kg/injection, schedule: Q01DX001 (ip), vehicle: saline): 104 % of control
T/C (dose: 200.0 mg/kg/injection, schedule: Q01DX001 (ip), vehicle: saline): 104 % of control

Nc1ncns1
T/C (dose: 50.0 mg/kg/injection, schedule: Q04DX003 (ip), vehicle: saline): 101 % of control
T/C (dose: 100.0 mg/kg/injection, schedule: Q04DX003 (ip), vehicle: saline): 120 % of control

CN(C)N/C=N/S(C)(=O)=O
T/C [13]: 101 % of control
T/C [14]: 101 % of control
T/C [15]: 109 % of control

Cc1nc2ccccc2c(Cl)c1C
T/C [2]: 102 % of control
T/C [3]: 105 % of control
T/C [8]: 103 % of control

CC(=O)N1C(=O)NC(=O)C1(C)c1cccs1 (stereo unspecified)
T/C [5]: 109 % of control
T/C [6]: 111 % of control
T/C [17]: 100 % of control
T/C [7]: 109 % of control
T/C [18]: 90 % of control
T/C [19]: 90 % of control

Cc1csc2ccccc12
T/C (dose: 12.5 mg/kg/injection, schedule: Q01DX009 (ip), vehicle: saline with Tween-80): 111 % of control
T/C [16]: 102 % of control
T/C [5]: 119 % of control

CC(=O)NC1C([Se][As](C)C)OC(COC(C)=O)C(OC(C)=O)C1OC(C)=O (stereo unspecified)
T/C (dose: 6.25 mg/kg/injection, schedule: Q01DX009 (ip), vehicle: saline with Tween-80): 116 % of control
T/C [16]: 115 % of control

CCOC(=O)CNCc1cccc(Br)c1
T/C [10]: 104 % of control
T/C [11]: 106 % of control
T/C [12]: 98 % of control
T/C (dose: 400.0 mg/kg/injection, schedule: Q01DX005 (ip), vehicle: saline): 104 % of control

N/C(=N\O)c1cn(C2OC(CO)C(O)C2O)c2ncnc(N)c12 (stereo unspecified)
T/C (dose: 0.6 mg/kg/injection, schedule: Q01DX009 (ip), vehicle: Klucel (hydroxypropylcellulose) (HPC)): 150 % of control
T/C (dose: 1.25 mg/kg/injection, schedule: Q01DX009 (ip), vehicle: Klucel (hydroxypropylcellulose) (HPC)): 168 % of control
T/C (dose: 2.5 mg/kg/injection, schedule: Q01DX009 (ip), vehicle: Klucel (hydroxypropylcellulose) (HPC)): 154 % of control
T/C (dose: 5.0 mg/kg/injection, schedule: Q01DX009 (ip), vehicle: Klucel (hydroxypropylcellulose) (HPC)): 172 % of control
